pIC50: −log10 of the molar value. Where two headings read alike, the source gives them in different places.
Legend:
RPMI8226 cells = assay: Cytotoxicity experiment (Cell-Titer, 72 h) in RPMI8226 cells; assay type: cell-based; settings: for pIC50: Homo sapiens, RPMI-8226, 72 h, Cell-Titer
Protocol: 4. Cytotoxicity Experiment
• (1) RPMI8226 cells in the logarithmic growth phase were added to a 384-well plate at 1000 cells/well in a volume of 18 μL/well and incubated at 37° C., 5% CO2 for 24 h. • (2) The test compound at a stock concentration of 10 mM was diluted 10-fold with DMSO and then 100-fold with a serum-free 1640 medium to give a dilution at a working concentration of 10 μM containing 1% DMSO. 10 concentrations were then obtained by 2-fold serial dilution using a serum-free 1640 medium containing 1% DMSO, with the tenth concentration point being a solvent control group (no drug). The diluted compound was added into the plated cell plate at 2 μL/well to give final compound concentrations from 1000 nM (2-fold gradient dilution, 10 concentration gradients), and 4 replicates were set for each concentration. 1% DMSO was used as a solvent control and KPT-8602 as a positive control. • (3) The cells were incubated at 37° C. for 72 h, and 10 μL of Cell-Titer assay reagent was added to each well, followed by incubation in a cell incubator for 10 min. • (4) The mixture was well mixed by shaking and then assayed by the Cell-Titer program running on a microplate reader. The inhibition % and IC50 values (μM) were calculated using GraphPad Prism 5.

[1] = Pharmacokinetic results of the drugs in SD rats; assay type: in vivo; settings: for clearance: read-out: Cl s, spp
Source text: III. Pharmacokinetic Results of the Drugs in SD Rats

[2] = In vivo toxicity assay in BALB/C mice (21 days, intragastric, once daily)
Protocol: IV. In Vivo Toxicity Assay of Candidate Compounds in BALB/C
25 BALB/C mice were randomly divided into the following 5 groups: solvent control group (Control), positive control KPT-8602 (30 mg/kg, once daily) group, KPT-8602 (60 mg/kg, once daily) group, compound I (30 mg/kg, once daily) group, and compound I (60 mg/kg, once daily) group, with 5 mice in each group. Each group was intragastrically given a test compound at a corresponding concentration at a dose of 3 mL/kg. KPT-8602 and compound I were administered daily for 21 consecutive days.

[3] = rat, in vivo, po (10 mg/kg), read-out: AUC0-inf
[4] = 30 mg/kg once daily, intragastric, 21 days

| Compound | pIC50 (RPMI8226 cells) | cellular activity compared with KPT-8602 (RPMI8226 cells) | AUC0-inf ([1]; iv (2 mg/kg), in ng·h/mL) | AUC0-t ([1]; iv (2 mg/kg), in ng·h/mL) | Cl s, spp ([1]; po (10 mg/kg)) | MRT ([1]; rat, in vivo, iv (2 mg/kg)) | half-life ([1]; rat, in vivo, iv (2 mg/kg)) | clearance ([1]; rat, in vivo, iv (2 mg/kg)) | MRT ([1]; rat, in vivo, po (10 mg/kg)) | Tmax ([1]; rat, in vivo, po (10 mg/kg)) | bioavailability ([1]; rat, in vivo, po (10 mg/kg)) | half-life ([1]; rat, in vivo, po (10 mg/kg)) | AUC0-inf [1, 3] | body weight change [2, 4] | also measured |
| --- | --- | --- | --- | --- | --- | --- | --- | --- | --- | --- | --- | --- | --- | --- | --- |
| O=C(NO)/C(=C/n1cnc(-c2cc(C(F)(F)F)cc(C(F)(F)F)c2)n1)c1cncnc1 [II, (E)-3-(3-(3,5-Bis(trifluorometh-yl)phenyl)-1H-1,2,4-triazol-1-yl)-N-hydroxy-2-(pyri-midin-5-yl)acrylamide] | 5.16 | – | – | – | – | – | – | – | – | – | – | – | – | – | – |
| CO/C(=N\C(C)(C)C)NC(=O)/C(=C/n1cnc(-c2cc(C(F)(F)F)cc(C(F)(F)F)c2)n1)c1cncnc1 [III, Methyl(Z)-N-((E)-3-(3-(3,5-bis(trifluoromethyl)phenyl)-1H-1,2,4-triazol-1-yl)-2-(py-rimidin-5-yl)acryloyl)-N′-(tert-butyl)carbamate] | 5.15 | – | – | – | – | – | – | – | – | – | – | – | – | – | – |
| CCONC(=O)/C(=C/n1cnc(-c2cc(C(F)(F)F)cc(C(F)(F)F)c2)n1)c1cncnc1 [IV, (E)-3-(3-(3,5-Bis(trifluorometh-yl)phenyl)-1H-1,2,4-triazol-1-yl)-N-ethoxy-2-(pyrimi-din-5-yl)acrylamide] | 6.27 | substantially equivalent to KPT-8602 | – | – | – | – | – | – | – | – | – | – | – | – | – |
| NC(=O)/C(=C/n1cnc(-c2cc(C(F)(F)F)cc(C(F)(F)F)c2)n1)c1cncnc1 [KPT-8602, reference compound] | 6.47 | – | 998 | 963 | 67.4 mL/min/kg | 2.48 h | 3.04 h | 34.4 mL/min/kg | 3.85 h | 1 h | 52% | 2.69 h | 2600 ng·h/mL | significant decrease in body weight | AUC0-t ([1]; po (10 mg/kg), in ng·h/mL): 2541; Cmax ([1]; rat, in vivo, po (10 mg/kg), read-out: Cmax): 720 ng/mL; mortality by day 10 ([2]; 60 mg/kg once daily, intragastric): all died; mice died on day 7 ([2]; 60 mg/kg once daily, intragastric, 5 mice per group): two |
| CONC(=O)/C(=C/n1cnc(-c2cc(C(F)(F)F)cc(C(F)(F)F)c2)n1)c1cncnc1 [Compound I, (E)-3-(3-(3,5-Bis(trifluorometh-yl)phenyl)-1H-1,2,4-triazol-1-yl)-N-methoxy-2-(pyri-midin-5-yl)acrylamide] | 6.43 | substantially equivalent to KPT-8602 | 1493 | 1301 | 43.8 mL/min/kg | 2.49 h | 4.23 h | 24.2 mL/min/kg | 7.65 h | 0.25 h | 55.9% | 5.59 h | 3890 ng·h/mL | body weights comparable to the blank | intravenous and oral AUCs compared with KPT-8602 ([1]; iv and po): much higher than those of KPT-8602; oral and intravenous half-lives compared with KPT-8602 ([1]; iv and po): longer than those of KPT-8602; oral half-life compared with KPT-8602 ([1]; po): about 2 times; Cmax ([1]; po (10 mg/kg)): 899 ng/mL; AUC0-t ([1]; rat, in vivo, po (10 mg/kg), read-out: AUC0-t): 3210 ng·h/mL; body weight change ([2]; 60 mg/kg once daily, intragastric, 21 days): body weights comparable to the blank; safety (overall conclusion) ([2]; 30 and 60 mg/kg once daily, 21 days): good safety |

Source: patent US12723037B2, “Triazole derivative, method for preparing same, and use thereof” (SHENZHEN JIKANG PHARMACEUTICAL TECHNOLOGY CO., LTD., priority 2021, dated 2026)
